Values of other authors as cited in publication PMC11232374, “Safety, tolerability, and pharmacokinetics of HRS9432(A) injection in healthy Chinese subjects: a phase-I randomized, double-blind, dose escalation, placebo-controlled study” (Antimicrobial Agents and Chemotherapy, 2024).

Conditions: after a single intravenous dose
From the text: Echinocandin-class antifungal drugs currently available on the market include caspofungin, micafungin, and anidulafungin. The chemical structures of these drugs contribute to their relatively short half-life, necessitating daily administration in clinical practice ([3]). Rezafungin is a long-acting echinocandin antifungal drug, based on the structure of anidulafungin to enhance metabolic stability. […] The results of its Pha ...

Rezafungin
elimination half-life: 150 h
